Assay results from patent US12391701B2, “Chromene-based compounds, methods and uses thereof” (University of Minho, priority 2019, dated 2025).

Experiments:
Assay type in all cases: cell-based
[1] = tested on: renal carcinoma cell lines; experiment: First screen against renal carcinoma cell lines; details: IC50 determination not pursued
Source text: (§1) In an embodiment, the antiproliferative activity of the compounds was further determined against renal carcinoma cell lines and non-neoplastic kidney cell line.

[2] = tested on: non-neoplastic cell line MCF-10A; experiment: Cell viability assay (MTS), MCF-10A; details: Homo sapiens, 72 h incubation
Experimental: (§2) In an embodiment, the cell growth inhibition and IC50 values of the synthesised and isolated chromene-based compounds were determined as part of the evaluation of the antiproliferative activity of the isolated agents. A complete study on the structure-activity relationship was performed for all the synthesised compounds. The antiproliferative activity against MCF-7 breast cancer cell lines were analysed. […] The non-neoplastic cell line MCF-10A was also used to determine the selectivity of the compounds for the tumour cells. For compounds with an IC50 value (concentration required to reduce cell viability by 50%) higher than 20 μM, the IC50 value was not determined. Selectivity index (SI) was calculated in order to evaluate the cytotoxicity of the tested compounds.
(§3) In an embodiment, three human breast cancer cell lines Hs578T, MDA-MB-468 and MCF-7, and a normal breast cell line MCF-10A, were obtained from ATCC (American Type Culture Collection). The cancer cell lines were cultured in Dulbecco's modified Eagle medium, 4.5 g/l glucose (DMEM, Gibco) supplemented with 10% heating inactivated Fetal Bovine Serum (FBS, Gibco) and 1% antibiotic solution (Penicillin-Streptomycin, Gibco). The normal cell line was cultured in Dulbecco's Modified Eagle Medium: Nutrient Mixture F-12 (DMEM/F12, Gibco) supplemented with 5% heating inactivated FBS (Gibco), 1% antibiotic solution (Penicillin-Streptomycin, Gibco), 1% steroid hormone (Hydrocortisone, Sigma-Aldrich), 0.1% peptide hormone (Insulin, Sigma-Aldrich) and 0.01% protein complex (Cholera Toxin, Gibco). Two distinct human acute myeloid leukemia (AML) cell lines, HL-60 (FAB M2) and KG-1 (erythroleukemia-FAB M6), and one human lymphoblastic leukemia (ALL) cell line, Jurkat (T cell type), were also used. These three cell lines were obtained from German Collection of Microorganisms and Cell cultures (DMSZ®, Deutsche Sammlung von Mikroorganismen and Zellkulturen in German). Cells were cultured in RPMI 1640 medium (Biochrom®-Merck Millipore) supplemented with 10% heating inactivated FBS (Biochrom®-Merck Millipore) and 1% antibiotic/antimitotic mixture (Invitrogen®). Three human glioblastoma (GBM) cell line models, two established and commercially available cell lines (U87MG and GAMG, kind gift from Rui M. Reis) and one primary GBM culture (GLIB) were also used. GBM cells were cultures in DMEM (Biochrom-Merck Millipore), all supplemented with 10% FBS. The Renal cell carcinoma cell lines A498, 786-O, Caki-2 and HK2 were obtained from ATCC. The cancer cell line A498 was cultured in MEM medium (Biochrom®-Merck Millipore), 786-O was cultured in RPMI 1640 medium (Biochrom®-Merck Millipore), Caki-2 was cultured in Mc Coys medium (Biochrom®-Merck Millipore) and HK2 was cultured in RPMI 1640 medium (Biochrom®-Merck Millipore). All the media were supplemented with 10% heat inactivated FBS (Biochrom®-Merck Millipore) and 1% antibiotic/antimitotic mixture (Invitrogen®). All cells were grown in a humidified incubator at 37° C. and 5% CO2. For all assays, DMSO (Dimethyl Sulfoxide, Sigma-Aldrich) controls were used.
(§4) In an embodiment, cell viability assays were performed. MCF-7, Hs578T and MCF-10A cells were plated in triplicate in 96-multiwell culture plates, at 3000 cells […], or 5000 cells […] for MDA-MB-468 (100 μL/well). The cells were then allowed to adhere in complete medium, over a period of 18-20 hours. Cells were subsequently treated with 7 different concentrations (from 0.1 to 40 μM or 5 to 60 μM) of compounds or control in fresh medium. HL-60, KG-1 and Jurkat cell lines were plated in 96-multiwell culture plates at 50.000 cells/100 μL per well and treated with different concentrations (from 0.001 to 2 μM) of the compounds described (or control). Cells were plated, in triplicate, at an initial density of 2000 cells/well for GAMG, 4000 cells/well for GL18 and 6000 cells/well for U87MG, in 96-well plates, and allowed to adhere for 18-20 hours. […]

[3] = tested on: breast cancer cell line MCF-7; experiment: Cell viability assay (MTS), MCF-7; details: Homo sapiens, MCF7; 72 h incubation
Experimental: as §2, §3, §4

TNBC cell line Hs578t = experiment: Cell viability assay (MTS), Hs578t; details: Homo sapiens, Hs-578T; 72 h incubation
Source text: In an embodiment, for a comparison study, monomers and respective dimers were selected and further evaluated in Hs578t and MDA-MB-468 breast cell lines. […] These cell lines correspond to the basal-like subtype of breast cancer, included in the known triple negative subtype, since they are negative for Estrogen receptor (ER), progesterone receptor (PR) and Human epidermal growth factor receptor 2 (HER2) molecular markers. The clinical behaviour of these breast cancer subtype is very aggressive and there is still no specific molecular therapy available.
as §3
(§5) In an embodiment, cell viability assays were performed. MCF-7, Hs578T and MCF-10A cells were plated in triplicate in 96-multiwell culture plates, at 3000 cells […], or 5000 cells […] for MDA-MB-468 (100 μL/well). The cells were then allowed to adhere in complete medium, over a period of 18-20 hours. Cells were subsequently treated with 7 different concentrations (from 0.1 to 40 μM or 5 to 60 μM) of compounds or control in fresh medium. HL-60, KG-1 and Jurkat cell lines were plated in 96-multiwell culture plates at 50.000 cells/100 μL per well and treated with different concentrations (from 0.001 to 2 μM) of the compounds described (or control). Cells were plated, in triplicate, at an initial density of 2000 cells/well for GAMG, 4000 cells/well for GL18 and 6000 cells/well for U87MG, in 96-well plates, and allowed to adhere for 18-20 hours. Cells were then treated with different concentrations of the compounds (0.005 to 100 μM) or with control. […]

[4] = tested on: TNBC cell line MDA-MB-231; experiment: Cell viability assay, MDA-MB-231; details: Homo sapiens
[5] = tested on: non-neoplastic cell line (HK2); experiment: Cell viability, HK2; details: Table 5; read-out: IC50 HK2
Experimental: as §1, §3
as §5, with “control. A498 and 786-O cells were plated at 2000 cells per mL, Caki-2 cells were plated at 3000 cells per mL and HK2 cells were plated at 2000 cells per mL in triplicate, in 96-multiwell culture plates (100 μL/well), and allowed to adhere over a period of 18-20 hours in complete medium. The cells were then treated with 7 different concentrations (from 0.1 to 40 μM or 5 to 60 μM) of compounds or control in fresh medium.” for “control.”

[6] = tested on: renal carcinoma cell line 786-O; experiment: Cell viability (sulforhodamine B), 786-O; details: Homo sapiens, 786-0; Table 5
Experimental: as §1, §3
as §5, with “control. A498 and 786-O cells were plated at 2000 cells per mL, Caki-2 cells were plated at 3000 cells per mL and HK2 cells were plated at 2000 cells per mL in triplicate, in 96-multiwell culture plates (100 μL/well), and allowed to adhere over a period of 18-20 hours in complete medium. The cells were then treated with 7 different concentrations (from 0.1 to 40 μM or 5 to 60 μM) of compounds or control in fresh medium.” for “control.”

[7] = tested on: renal carcinoma cell line A498; experiment: Cell viability (sulforhodamine B), A498; details: Homo sapiens, Table 5
Experimental: as §1, §3
as §5, with “control. A498 and 786-O cells were plated at 2000 cells per mL, Caki-2 cells were plated at 3000 cells per mL and HK2 cells were plated at 2000 cells per mL in triplicate, in 96-multiwell culture plates (100 μL/well), and allowed to adhere over a period of 18-20 hours in complete medium. The cells were then treated with 7 different concentrations (from 0.1 to 40 μM or 5 to 60 μM) of compounds or control in fresh medium.” for “control.”

[8] = tested on: renal carcinoma cell line Caki-2; experiment: Cell viability (sulforhodamine B), Caki-2; details: Homo sapiens, Table 5
Experimental: as §1, §3
as §5, with “control. A498 and 786-O cells were plated at 2000 cells per mL, Caki-2 cells were plated at 3000 cells per mL and HK2 cells were plated at 2000 cells per mL in triplicate, in 96-multiwell culture plates (100 μL/well), and allowed to adhere over a period of 18-20 hours in complete medium. The cells were then treated with 7 different concentrations (from 0.1 to 40 μM or 5 to 60 μM) of compounds or control in fresh medium.” for “control.”

Q: What does the source list for `COc1ccc2c(c1)Cc1[nH]c(-c3cc(OC)ccc3O)nc1O2` [Compound M1220]?
A: biological activity in a first screen [1]: did not demonstrate any biological activity; IC50 [2]: > 30000 nM; IC50 [3]: 5850 nM; IC50 (TNBC cell line Hs578t): > 30000 nM

Q: How did the “biological activity in a first screen” value [1] turn out when `Oc1ccc(Cl)cc1-c1nc2c([nH]1)Cc1cc(Cl)ccc1O2` [Compound M1143] was run?
A: did not demonstrate any biological activity

Q: And the IC50 [4]?
A: > 30000 nM

Q: What about the IC50 [3] of the same compound?
A: > 30000 nM

Q: And the IC50 (TNBC cell line Hs578t)?
A: > 30000 nM

Q: What does the source list for `COc1cccc2c1Oc1nc(-c3cccc(O)c3)[nH]c1C2` [MC359, 3-(5-methoxy-3,9-dihydrochromeno[2,3-d]imidazol-2-yl)phenol]?
A: IC50 [5]: 5290 nM; IC50 [6]: 3210 nM; IC50 [7]: 2450 nM; IC50 [8]: 2340 nM; IC50 [4]: 2700 nM; IC50 [2]: 6660 nM; IC50 [3]: 2820 nM; IC50 (TNBC cell line Hs578t): 3480 nM

Q: With `Oc1ccccc1-c1nc2c([nH]1)Cc1ccccc1O2` [Compound M1159] as the compound, how does the IC50 [5] read?
A: 5610 nM

Q: What about the IC50 [6] of the same compound?
A: 3040 nM

Q: And the IC50 [7]?
A: 13600 nM

Q: What about the IC50 [4] of the same compound?
A: 10400 nM

Q: And the IC50 [2]?
A: > 30000 nM

Q: And the IC50 [3]?
A: 3680 nM

Q: For `COc1cccc2c1Oc1nc(-c3cccc(F)c3)[nH]c1C2` [MC349, 2-(3-fluorophenyl)-5-methoxy-3,9-dihydrochromeno[2,3-d]imidazoles], which IC50 [5] is on record?
A: 2630 nM

Q: What about the IC50 [6] of the same compound?
A: 446 nM

Q: And the IC50 [7]?
A: 1120 nM

Q: What about the IC50 [8] of the same compound?
A: 440 nM

Q: What about the IC50 [4] of the same compound?
A: 1230 nM

Q: And the IC50 [2]?
A: 2300 nM

Q: What about the IC50 [3] of the same compound?
A: 770 nM

Q: What about the IC50 (TNBC cell line Hs578t) of the same compound?
A: 640 nM

Q: With `COc1cccc(-c2nc3c([nH]2)Cc2cccc(OC)c2O3)c1O` [Compound M955] as the compound, how does the “biological activity in a first screen” value [1] read?
A: did not demonstrate any biological activity

Q: What about the IC50 [4] of the same compound?
A: 15700 nM

Q: What about the IC50 [2] of the same compound?
A: > 30000 nM

Q: And the IC50 [3]?
A: 4150 nM

Q: What about the IC50 (TNBC cell line Hs578t) of the same compound?
A: > 20000 nM

Q: `Oc1ccc(Br)cc1-c1nc2c([nH]1)Cc1cc(Br)ccc1O2` [Compound M1221] was tested. Which “biological activity in a first screen” value [1] did it give?
A: did not demonstrate any biological activity

Q: And the IC50 [4]?
A: > 30000 nM

Q: What about the IC50 [3] of the same compound?
A: > 30000 nM

Q: For `COc1cccc2c1Oc1nc(-c3ccc(Cl)cc3)[nH]c1C2` [MC412, 2-(4-chlorophenyl)-5-methoxy-3,9-dihydrochromeno[2,3-d]imidazoles], which IC50 [5] is on record?
A: 1630 nM

Q: What about the IC50 [6] of the same compound?
A: 32 nM

Q: And the IC50 [7]?
A: 290 nM

Q: And the IC50 [8]?
A: 39 nM

Q: And the IC50 [4]?
A: 1670 nM

Q: What about the IC50 [2] of the same compound?
A: 1740 nM

Q: And the IC50 [3]?
A: 440 nM

Q: And the IC50 (TNBC cell line Hs578t)?
A: 980 nM
